≈ marks a conversion by molar mass, not a printed value.
Legend:
Helicobacter pylori [1] = experiment: Antimicrobial activity against Helicobacter pylori clinical isolate 2 after 7 days by two-fold agar dilution method; format: functional; conditions: clinical isolate 2, 168 h
Helicobacter pylori [2] = experiment: Antimicrobial activity against Helicobacter pylori clinical isolate 1 after 7 days by two-fold agar dilution method; format: functional; conditions: clinical isolate 1, 168 h
Staphylococcus aureus [3] = experiment: Antimicrobial activity against methicillin-susceptible Staphylococcus aureus ATCC 29213 incubated for 16 hrs by CLSI method; format: functional; conditions: ATCC 29213, 16 h
Staphylococcus aureus [4] = experiment: Antimicrobial activity against healthcare-acquired methicillin-resistant Staphylococcus aureus NRS70 incubated for 16 hrs by CLSI method; format: functional; conditions: NRS70, 16 h
Staphylococcus aureus [5] = experiment: Antimicrobial activity against methicillin-resistant Staphylococcus aureus ATCC 700699 incubated for 24 hrs by CLSI-based broth microdilution method; format: functional; conditions: ATCC 700699, 24 h
Pseudomonas aeruginosa = experiment: Antimicrobial activity against Pseudomonas aeruginosa ATCC BAA-427 incubated for 24 hrs by CLSI-based broth microdilution method; format: functional; conditions: ATCC BAA-427, 24 h
Staphylococcus aureus [6] = experiment: Antimicrobial activity against Staphylococcus aureus ATCC 29213 incubated for 24 hrs by CLSI-based dilution method; format: functional; conditions: ATCC 29213, 24 h
Staphylococcus aureus [7] = experiment: Antimicrobial activity against gentamicin-resistant Staphylococcus aureus ATCC 33592 incubated for 24 hrs by CLSI-based broth microdilution method; format: functional; conditions: ATCC 33592, 24 h
Escherichia coli [8] = experiment: Antimicrobial activity against Escherichia coli ATCC 9637 incubated for 24 hrs by CLSI-based broth microdilution method; format: functional; conditions: W ATCC 9637, 24 h
Staphylococcus aureus [9] = experiment: Antimicrobial activity against Staphylococcus aureus ATCC 25923 incubated for 24 hrs by CLSI-based dilution method; format: functional; conditions: ATCC 25923, 24 h
Klebsiella pneumoniae = experiment: Antimicrobial activity against Klebsiella pneumoniae ATCC 27736 incubated for 24 hrs by CLSI-based broth microdilution method; format: functional; conditions: ATCC 27736, 24 h
PC-3 = experiment: Growth inhibition of human PC3 cells by MTT assay; format: functional, cell-based
Candida albicans = experiment: Antifungal activity against Candida albicans after overnight incubation by agar well diffusion method; format: functional
Aspergillus clavatus = experiment: Antifungal activity against Aspergillus clavatus after overnight incubation by agar well diffusion method; format: functional
Staphylococcus aureus [10] = experiment: Antimicrobial activity against methicillin-resistant Staphylococcus aureus ATCC 25923 by microdilution method; format: functional
Staphylococcus aureus [11] = experiment: Antimicrobial activity against Staphylococcus aureus ATCC 29213 by microdilution method; format: functional
Escherichia coli [12] = experiment: Antimicrobial activity against Escherichia coli ATCC […] by microdilution method; format: functional
Escherichia coli [13] = experiment: Antimicrobial activity against multidrug resistance Escherichia coli ATCC 35218 by microdilution method; format: functional
[14] = system: Mycobacterium tuberculosis; experiment: Antimicrobial activity against Mycobacterium tuberculosis H37Rv incubated for 10 days by microbroth dilution method; format: functional; conditions: 240 h

Nc1c(Nc2ccccc2)c(F)cc2c(=O)c(C(=O)O)cn(C3CC3)c12
MIC (Helicobacter pylori [1]): 1.3 µg/mL (≈ 3.68 µM)
MIC (Helicobacter pylori [2]): 0.6 µg/mL (≈ 1.7 µM)

COc1c(N2CC3CCCCC3C2)c(F)cc2c(=O)c(C(=O)Nc3nccs3)cn(C3CC3)c12 (stereo not drawn)
MIC90 (Staphylococcus aureus [3]): > 201 µg/mL
MIC90 (Staphylococcus aureus [4]): > 201 µg/mL

CCn1cc(C(=O)O)c(=O)c2cc(F)c(-n3cc(CO[C@H]4O[C@H](COC(C)=O)[C@H](OC(C)=O)[C@H](OC(C)=O)[C@H]4OC(C)=O)nn3)c(F)c21
MIC (Staphylococcus aureus [5]): > 50 µg/mL
MIC (Pseudomonas aeruginosa): > 50 µg/mL
MIC (Staphylococcus aureus [6]): > 50 µg/mL
MIC (Staphylococcus aureus [7]): > 50 µg/mL
MIC (Escherichia coli [8]): 12.5 µg/mL (≈ 18.4 µM)
MIC (Staphylococcus aureus [9]): > 50 µg/mL
MIC (Klebsiella pneumoniae): > 50 µg/mL

COc1c(N2CCNCC2)c(F)cc2c(=O)c(C(=O)N3CCSC3)cn(C3CC3)c12
MIC90 (Staphylococcus aureus [3]): 0.39 µg/mL (≈ 0.902 µM)
MIC90 (Staphylococcus aureus [4]): 0.62 µg/mL (≈ 1.43 µM)

COc1cc(/C=N\NC(=O)c2cn(C3CC3)c3c(OC)c(N4CCN(C)CC4)c(F)cc3c2=O)ccc1O
IC50 (PC-3): 14.8 µg/mL (≈ 28.3 µM)
inhibition zone (IZ) (Candida albicans): 10 mm
inhibition zone (IZ) (Aspergillus clavatus): 12 mm

Nc1c(Nc2ccc(Cl)cc2)c(F)cc2c(=O)c(C(=O)O)cn(C3CC3)c12
MIC (Helicobacter pylori [1]): 2.5 µg/mL (≈ 6.45 µM)
MIC (Helicobacter pylori [2]): 5 µg/mL (≈ 12.9 µM)

COc1c(N2CCN(C)CC2)c(F)cc2c(=O)c(C(=O)N/N=C\c3cccc(N(C)C)c3)cn(C3CC3)c12
inhibition zone (IZ) (Candida albicans): 8 mm
inhibition zone (IZ) (Aspergillus clavatus): 10 mm

CN(C)N(Cn1nc2c(F)cc3c(=O)c(C(=O)O)cn(C4CC4)c3n2c1=O)N(C)C
MIC (Staphylococcus aureus [10]): ≤ 8 µg/mL
MIC (Staphylococcus aureus [11]): ≤ 2 µg/mL
MIC (Escherichia coli [12]): ≤ 1 µg/mL
MIC (Escherichia coli [13]): ≤ 4 µg/mL

O=C(O)c1cn(C2CC2)c2c(cc(F)c3nn(CN(N4CCCC4)N4CCCC4)c(=O)n32)c1=O
MIC (Helicobacter pylori [1]): 0.6 µg/mL (≈ 1.27 µM)
MIC (Helicobacter pylori [2]): 2.5 µg/mL (≈ 5.3 µM)

COc1c(N2CCN(C)CC2)c(F)cc2c(=O)c(C(=O)N/N=C\c3ccc(O)cc3)cn(C3CC3)c12
IC50 (PC-3): 14.4 µg/mL (≈ 29.2 µM)
inhibition zone (IZ) (Candida albicans): 9 mm
inhibition zone (IZ) (Aspergillus clavatus): 12 mm

COc1c(N2CC3=CCCCC3C2)c(F)cc2c(=O)c(C(=O)N3CCSC3)cn(C3CC3)c12 (stereo not drawn)
MIC90 (Staphylococcus aureus [3]): 6.3 µg/mL (≈ 13.4 µM)
MIC90 (Staphylococcus aureus [4]): 6.3 µg/mL (≈ 13.4 µM)

COc1c(N2CCCC2)c(F)cc2c(=O)c(C(=O)Nc3nccs3)cn(C3CC3)c12
MIC90 (Staphylococcus aureus [3]): > 201 µg/mL
MIC90 (Staphylococcus aureus [4]): > 201 µg/mL

CCn1cc(C(=O)O)c(=O)c2cc(F)c(-n3cc(CO[C@H]4O[C@@H](C)[C@H](OC(C)=O)[C@@H](OC(C)=O)[C@H]4OC(C)=O)nn3)c(F)c21
MIC (Staphylococcus aureus [10]): ≤ 16 µg/mL
MIC (Staphylococcus aureus [11]): ≤ 4 µg/mL
MIC (Escherichia coli [12]): ≤ 4 µg/mL
MIC (Escherichia coli [13]): ≤ 16 µg/mL

Cc1ccc(Nc2c(F)cc3c(=O)c(C(=O)O)cn(C4CC4)c3c2N)cc1
MIC (Helicobacter pylori [1]): 2.5 µg/mL (≈ 6.8 µM)
MIC (Helicobacter pylori [2]): 5 µg/mL (≈ 13.6 µM)

O=C(O)c1cn(C2CC2)c2c(cc(F)c3c2nnn3-c2ccc(Cl)cc2)c1=O
MIC (Helicobacter pylori [1]): 2.5 µg/mL (≈ 6.27 µM)
MIC (Helicobacter pylori [2]): 5 µg/mL (≈ 12.5 µM)

O=C(O)c1cn(C2CC2)c2c(cc(F)c3nn(CN(N4CCCCC4)N4CCCCC4)c(=O)n32)c1=O
MIC (Staphylococcus aureus [10]): ≤ 8 µg/mL
MIC (Staphylococcus aureus [11]): ≤ 1 µg/mL
MIC (Escherichia coli [12]): ≤ 1 µg/mL
MIC (Escherichia coli [13]): ≤ 4 µg/mL

CCO/N=C1/CN(CCCn2cc(CN3CCCC4CN(c5c(F)cc6c(=O)c(C(=O)O)cn(C7CC7)c6c5OC)CC43)nn2)c2ccc(F)cc21 (stereo not drawn)
MIC [14]: 12.5 µg/mL (≈ 17.4 µM)

CCN1CCN(N(Cn2nc3c(F)cc4c(=O)c(C(=O)O)cn(C5CC5)c4n3c2=O)N2CCN(CC)CC2)CC1
MIC (Staphylococcus aureus [10]): ≤ 0.5 µg/mL
MIC (Staphylococcus aureus [11]): ≤ 0.125 µg/mL
MIC (Escherichia coli [12]): ≤ 0.125 µg/mL
MIC (Escherichia coli [13]): ≤ 0.25 µg/mL

CCn1cc(C(=O)O)c(=O)c2cc(F)c(-c3cc4ccccc4oc3=O)cc21
MIC [14]: 12.5 µg/mL (≈ 33 µM)

COc1c(N2CC3CCCCC3C2)c(F)cc2c(=O)c(C(=O)N3CCSC3)cn(C3CC3)c12 (stereo not drawn)
MIC90 (Staphylococcus aureus [3]): 0.79 µg/mL (≈ 1.68 µM)
MIC90 (Staphylococcus aureus [4]): 0.79 µg/mL (≈ 1.68 µM)

C[C@H]1COc2c(-c3cc4cc(Br)ccc4oc3=O)c(F)cc3c(=O)c(C(=O)O)cn1c23
MIC [14]: 12.5 µg/mL (≈ 25.7 µM)

COc1c(N2CCOCC2)c(F)cc2c(=O)c(C(=O)Nc3nccs3)cn(C3CC3)c12
MIC90 (Staphylococcus aureus [3]): > 201 µg/mL
MIC90 (Staphylococcus aureus [4]): > 201 µg/mL

Cc1ccc(-n2nnc3c4c(cc(F)c32)c(=O)c(C(=O)O)cn4C2CC2)cc1
MIC (Helicobacter pylori [1]): 1.3 µg/mL (≈ 3.44 µM)
MIC (Helicobacter pylori [2]): 5 µg/mL (≈ 13.2 µM)

— ChEMBL document CHEMBL4602605, “Fluoroquinolones structural and medicinal developments (2013-2018): Where are we now?” (Bioorg Med Chem, 2019)
